Measurements as given in paper PMC10282093, “Structural basis of α1A-adrenergic receptor activation and recognition by an extracellular nanobody” (Nature Communications, 2023).
“And” between values parts separate entries of the source, which are not always exact repeats. Identical values can stand only once.

Columns and labels:
[1] = molecular target: T1, α1AAR (Homo sapiens, UniProt P35348); assay: [3H]prazosin radioligand binding, Sf9 membranes
T1 sequence (P35348 1-370): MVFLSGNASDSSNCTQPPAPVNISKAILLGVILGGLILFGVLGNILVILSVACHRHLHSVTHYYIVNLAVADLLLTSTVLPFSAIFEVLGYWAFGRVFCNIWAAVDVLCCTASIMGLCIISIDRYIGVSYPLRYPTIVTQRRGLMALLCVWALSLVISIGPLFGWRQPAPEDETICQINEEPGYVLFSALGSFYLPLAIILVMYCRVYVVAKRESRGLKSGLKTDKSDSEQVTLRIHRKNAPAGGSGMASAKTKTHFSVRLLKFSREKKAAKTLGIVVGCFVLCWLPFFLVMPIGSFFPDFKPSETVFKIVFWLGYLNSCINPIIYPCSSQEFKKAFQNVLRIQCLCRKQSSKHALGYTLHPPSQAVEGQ
Description: (§1) After centrifugation, the pellet was homogenized in binding buffer and used as the membrane fraction in binding assays. […] Receptors were incubated for 1 h at room temperature with various concentrations of ligand in a total volume of 100 µl. After the reaction, the mixture was trapped on Whatman GF/B glass filters. Bound and free radioligands were separated by washing with ice-cold binding buffer. Radioactivity was measured on a MicroBeta2 liquid scintillation counter (PerkinElmer).

[2] = molecular target: T2, α1DAR (Homo sapiens, UniProt P25100); assay: [3H]prazosin radioligand competition binding, Sf9 membranes; conditions: 1 h
T2 construct: made in house; host or cells: Sf9 insect cells (membranes)
T2 sequence (P25100 1-572): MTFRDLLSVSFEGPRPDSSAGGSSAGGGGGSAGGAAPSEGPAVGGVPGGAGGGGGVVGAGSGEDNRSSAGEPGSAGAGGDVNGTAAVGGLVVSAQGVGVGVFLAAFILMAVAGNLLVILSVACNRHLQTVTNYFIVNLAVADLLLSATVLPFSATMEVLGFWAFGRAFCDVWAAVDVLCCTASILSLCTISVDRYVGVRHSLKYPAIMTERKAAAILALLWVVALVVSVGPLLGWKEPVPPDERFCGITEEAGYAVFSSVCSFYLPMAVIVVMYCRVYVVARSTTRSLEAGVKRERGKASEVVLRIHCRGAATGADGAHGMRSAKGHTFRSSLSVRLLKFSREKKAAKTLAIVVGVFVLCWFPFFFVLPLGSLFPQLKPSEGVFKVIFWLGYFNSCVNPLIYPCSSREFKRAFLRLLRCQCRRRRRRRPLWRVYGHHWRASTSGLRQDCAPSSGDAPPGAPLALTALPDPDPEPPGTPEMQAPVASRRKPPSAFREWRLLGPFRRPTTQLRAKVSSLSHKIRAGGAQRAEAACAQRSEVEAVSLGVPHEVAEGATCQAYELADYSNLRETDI
Description: as §1

[3] = molecular target: T3, α1AAR (Homo sapiens, UniProt P35348); assay: Glo-sensor cAMP signaling assay with engineered Gsq protein in HEK293T cells; conditions: HEK-293T
T3 sequence (P35348 1-466): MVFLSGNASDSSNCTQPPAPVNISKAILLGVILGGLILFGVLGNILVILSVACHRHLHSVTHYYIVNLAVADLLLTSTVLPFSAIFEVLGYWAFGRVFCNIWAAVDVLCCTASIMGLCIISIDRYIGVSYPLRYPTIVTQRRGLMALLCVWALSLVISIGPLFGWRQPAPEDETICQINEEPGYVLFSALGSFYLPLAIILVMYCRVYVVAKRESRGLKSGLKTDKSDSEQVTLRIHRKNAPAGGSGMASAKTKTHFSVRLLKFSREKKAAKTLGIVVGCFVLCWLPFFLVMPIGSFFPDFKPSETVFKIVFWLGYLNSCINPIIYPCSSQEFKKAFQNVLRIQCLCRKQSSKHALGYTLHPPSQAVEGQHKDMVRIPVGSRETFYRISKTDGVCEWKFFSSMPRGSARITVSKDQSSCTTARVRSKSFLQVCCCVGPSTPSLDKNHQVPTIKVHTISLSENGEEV
Description: In brief, pGloSensor™−22F plasmid, receptor plasmid, and Gsq plasmid were transfected into HEK293T cells. At 24 h after transfection, the cells were switched into a CO2-Independent Medium (Gibco) and incubated with GloSensor^TM cAMP reagent. The mixture was then transferred to a 96-well white plate. The 96-well plate is placed at 37 °C in the dark for 1 h, then placed at room temperature in the dark for 1 h before use. […] The result curves were calculated and fitted by GraphPad Prism 9.

[4] = system: HEK293T cells (mock); assay: Glo-sensor cAMP assay, mock (negative control); type: cell-based
Description: In brief, […] plasmid, receptor plasmid, and Gsq plasmid were transfected into HEK293T cells. At 24 h after transfection, the cells were switched into a CO2-Independent Medium (Gibco) and incubated with GloSensor^TM cAMP reagent. The mixture was then transferred to a 96-well white plate. The 96-well plate is placed at 37 °C in the dark for 1 h, then placed at room temperature in the dark for 1 h before use. […] The result curves were calculated and fitted by GraphPad Prism 9.

[5] = system: α1ARs over α2ARs; conditions: cited from earlier work

Cc1cc(C(C)(C)C)c(O)c(C)c1CC1=NCCN1 [Oxymetazoline, oxymetazoline]
[3H]prazosin binding ([1]; Fig 1c, oxymetazoline Log[M] -4): 10.9281% and 8.737% and 2.765%
[3H]prazosin binding ([1]; Fig 1c, oxymetazoline Log[M] -5): 28.5329% and 15.8053% and 21.6214%
[3H]prazosin binding ([1]; Fig 1c, oxymetazoline Log[M] -6): 48.3547% and 40.7911% and 47.5462%
[3H]prazosin binding ([1]; Fig 1c, oxymetazoline Log[M] -7): 71.541% and 85.4423% and 88.1547%
[3H]prazosin binding ([1]; Fig 1c, oxymetazoline Log[M] -8): 80.5129% and 95.3793% and 78.3743%
[3H]prazosin binding ([1]; Fig 1c, oxymetazoline Log[M] -9): 85.0772% and 90.4238% and 92.4582%
[3H]prazosin binding ([1]; Fig 1c, oxymetazoline Log[M] -10): 89.85% and 99.1089% and 88.2591%
[3H]prazosin binding ([1]; SupFig 3a, oxymetazoline Log[M] -4): 12.1047% and 12.5905% and 4.0484%
[3H]prazosin binding ([1]; SupFig 3a, oxymetazoline Log[M] -5): 17.0033% and 16.477% and 26.9623%
[3H]prazosin binding ([1]; SupFig 3a, oxymetazoline Log[M] -6): 53.0745% and 43.3179% and 35.5045%
[3H]prazosin binding ([1]; SupFig 3a, oxymetazoline Log[M] -7): 77.4054% and 89.6316% and 82.5874%
[3H]prazosin binding ([1]; SupFig 3a, oxymetazoline Log[M] -8): 97.364% and 96.109% and 85.3403%
[3H]prazosin binding ([1]; SupFig 3a, oxymetazoline Log[M] -9): 100.805% and 102.506% and 100.765%
[3H]prazosin binding ([1]; SupFig 3a, oxymetazoline Log[M] -10): 92.5464% and 102.06% and 94.2468%
[3H]prazosin binding ([1]; SupFig 3a, oxymetazoline Log[M] -11): 99.0644% and 106.675% and 101.331%
[3H]prazosin binding ([1]; SupFig 5b, Oxy Log[M] -4, listed as Oxy): 3.711% and 5.398% and 5.024%
[3H]prazosin binding ([1]; SupFig 5b, Oxy Log[M] -5, listed as Oxy): 10.3036% and 9.182% and 6.784%
[3H]prazosin binding ([1]; SupFig 5b, Oxy Log[M] -6, listed as Oxy): 25.9506% and 41.5063% and 33.8379%
[3H]prazosin binding ([1]; SupFig 5b, Oxy Log[M] -7, listed as Oxy): 92.3589% and 77.9429% and 95.5776%
[3H]prazosin binding ([1]; SupFig 5b, Oxy Log[M] -8, listed as Oxy): 101.851% and 78.107% and 77.5873%
[3H]prazosin binding ([1]; SupFig 5b, Oxy Log[M] -9, listed as Oxy): 102.225% and 74.633% and 114.735%
[3H]prazosin binding ([1]; SupFig 5b, Oxy Log[M] -10, listed as Oxy): 96.3983% and 104.267% and 110.313%
[3H]prazosin binding ([1]; SupFig 5b, Oxy Log[M] -11, listed as Oxy): 110.176% and 107.431% and 115.738%
[3H]prazosin binding ([1]; oxymetazoline Log[M] -4, + 5 μM Nb29): 2.395% and 8.488% and 7.551%
[3H]prazosin binding ([1]; oxymetazoline Log[M] -5, + 5 μM Nb29): 13.6695% and 16.4815% and 14.4506%
[3H]prazosin binding ([1]; oxymetazoline Log[M] -6, + 5 μM Nb29): 33.0932% and 34.9679% and 29.0314%
[3H]prazosin binding ([1]; oxymetazoline Log[M] -7, + 5 μM Nb29): 67.0717% and 63.0359% and 61.005%
[3H]prazosin binding ([1]; oxymetazoline Log[M] -8, + 5 μM Nb29): 88.2659% and 86.6777% and 81.6265%
[3H]prazosin binding ([1]; oxymetazoline Log[M] -9, + 5 μM Nb29): 85.0373% and 101.154% and 98.9412%
[3H]prazosin binding ([1]; oxymetazoline Log[M] -10, + 5 μM Nb29): 98.863% and 104.175% and 100.087%
remaining binding at 100 µM ([2]; oxymetazoline Log[M] -4): 40%
remaining binding at 10 µM ([2]; oxymetazoline Log[M] -5): 78%
remaining binding at 1 µM ([2]; oxymetazoline Log[M] -6): 104%
remaining binding at 0.01 µM ([2]; oxymetazoline Log[M] -8): 101%
remaining binding at 0.001 µM ([2]; oxymetazoline Log[M] -9): 85.5%
remaining binding at 0.0001 µM ([2]; oxymetazoline Log[M] -10): 96.6%
activation at 100 µM ([3]; read-out: α1AAR activation (Noradrenaline %), Oxy Log[M] -4): 79.5%
activation at 10 µM ([3]; read-out: α1AAR activation (Noradrenaline %), Oxy Log[M] -5): 82.8%
activation at 1 µM ([3]; read-out: α1AAR activation (Noradrenaline %), Oxy Log[M] -6): 89.5%
activation at 0.1 µM ([3]; read-out: α1AAR activation (Noradrenaline %), Oxy Log[M] -7): 76.5%
activation at 0.01 µM ([3]; read-out: α1AAR activation (Noradrenaline %), Oxy Log[M] -8): 64.3%
activation at 0.001 µM ([3]; read-out: α1AAR activation (Noradrenaline %), Oxy Log[M] -9): 30.7%
cAMP Glo-sensor signal (Noradrenaline %) ([4]; Oxy Log[M] -4, listed as Oxy): 20.5576% and 21.072% and 20.3482%
cAMP Glo-sensor signal (Noradrenaline %) ([4]; Oxy Log[M] -5, listed as Oxy): 16.9742% and 18.9752% and 17.0682%
cAMP Glo-sensor signal (Noradrenaline %) ([4]; Oxy Log[M] -6, listed as Oxy): 11.7764% and 12.3973% and 9.944%
cAMP Glo-sensor signal (Noradrenaline %) ([4]; Oxy Log[M] -7, listed as Oxy): 5.984% and 4.961% and 5.326%
cAMP Glo-sensor signal (Noradrenaline %) ([4]; Oxy Log[M] -8, listed as Oxy): 5.537% and 5.0478% and 4.209%
cAMP Glo-sensor signal (Noradrenaline %) ([4]; Oxy Log[M] -9, listed as Oxy): 5.27% and 4.932% and 5.142%
cAMP Glo-sensor signal (Noradrenaline %) ([4]; Oxy Log[M] -10, listed as Oxy): 5.3547% and 4.562% and 4.147%
cAMP Glo-sensor signal (Noradrenaline %) ([4]; Oxy Log[M] -11, listed as Oxy): 5.371% and 4.924% and 4.109%

(+)-cyclazosin
selectivity for α1ARs over α2ARs [5]: 100–1000 fold
subtype preference among α1ARs [5]: slight preference for α1BAR over α1AAR
